The test system of assay [1] is Mycobacterium tuberculosis. The assay is described as follows: Antimycobacterial activity against isoniazid-resistant Mycobacterium tuberculosis by agar dilution method. The assay is classed as functional.
The subject of assay [2] is Mycobacterium tuberculosis. Briefly: Ratio of isoniazid MIC to compound MIC for isoniazid-resistant Mycobacterium tuberculosis. The assay is classed as functional.

Values after ≈ are worked out from the molar mass of the structure shown. Some results are limits rather than exact numbers.

For the compound `COc1cc2c(cc1OC)C1=NN(C(=O)Nc3ccc(F)c(Cl)c3)C(c3ccccc3)C1C2` (centres undefined), in assay [1], the minimum inhibitory concentration (MIC) – broadly, the lowest concentration found to suppress growth – was 12.5 µM (≈ 5.82 µg/mL).

In assay [1], `COc1ccc(C2C3Cc4cc(OC)c(OC)cc4C3=NN2C(=O)Nc2ccc(F)c(Cl)c2)cc1` (centres undefined) came in with a minimal inhibitory concentration (MIC) of 12.5 µM (≈ 6.2 µg/mL).

Regarding `COc1cc2c(cc1OC)C1=NN(C(=O)Nc3ccc(F)cc3)C(c3ccncc3)C1C2` (centres undefined), in assay [1], 6.25 µM (≈ 2.7 µg/mL) was the least that counted as inhibitory (MIC).

Turning to `COc1cc2c(cc1OC)C1=NN(C(=O)Nc3ccc(F)cc3)C(c3ccccc3Cl)C1C2` (centres undefined), inhibition of growth in assay [1] (MIC) required 12.5 µM (≈ 5.82 µg/mL).

In turn, `COc1cc2c(cc1OC)C1=NN(C(=O)Nc3ccc(F)cc3)C(c3ccc(F)cc3)C1C2` (centres undefined) came in with an MIC in assay [1] of 0.78 µM (≈ 0.351 µg/mL). In assay [2], the Ratio worked out at 16.

On to `COc1cc2c(cc1OC)C1=NN(C(=O)Nc3ccc(F)cc3)C(c3ccccc3)C1C2` (centres undefined), for which, in assay [1], 10 µM (≈ 4.31 µg/mL) was the least that counted as inhibitory (MIC).

For `COc1ccc(C2C3Cc4cc(OC)c(OC)cc4C3=NN2C(=O)Nc2ccc(F)cc2)cc1` (centres undefined), the MIC in assay [1] was found to be 12.5 µM (≈ 5.77 µg/mL).

Take `COc1cc2c(cc1OC)C1=NN(C(=O)Nc3ccc(Br)cc3)C(c3ccncc3)C1C2` (centres undefined): in assay [1], the MIC was determined as 10 µM (≈ 4.93 µg/mL).

With `COc1cc2c(cc1OC)C1=NN(C(=O)Nc3ccc(Br)cc3)C(c3ccccc3Cl)C1C2` (centres undefined), the minimum inhibitory concentration (MIC) in assay [1] is 10 µM (≈ 5.27 µg/mL).

`COc1cc2c(cc1OC)C1=NN(C(=O)Nc3ccc(Br)cc3)C(c3ccc(F)cc3)C1C2` (centres undefined): the MIC in assay [1] amounted to 6.25 µM (≈ 3.19 µg/mL). This MIC is about 1.6-fold lower than that of the compound before.

On to `COc1cc2c(cc1OC)C1=NN(C(=O)Nc3ccc(Br)cc3)C(c3ccccc3)C1C2` (centres undefined), for which the MIC in assay [1] was more than 10 µM.

Consider `COc1cc2c(cc1OC)C1=NN(C(=O)Nc3ccc(F)c(Cl)c3)C(c3ccncc3)C1C2` (centres undefined), for which the MIC in assay [1] was 10 µM (≈ 4.67 µg/mL).

In assay [1], `COc1cc2c(cc1OC)C1=NN(C(=O)Nc3ccc(F)c(Cl)c3)C(c3ccccc3Cl)C1C2` (centres undefined) returned an MIC of 12.5 µM (≈ 6.25 µg/mL).

In the case of `COc1cc2c(cc1OC)C1=NN(C(=O)Nc3ccc(F)c(Cl)c3)C(c3ccc(F)cc3)C1C2` (centres undefined), the MIC in assay [1] came out at 3.12 µM (≈ 1.51 µg/mL). The Ratio in assay [2] is listed as 4.

`COc1ccc(C2C3Cc4cc(OC)c(OC)cc4C3=NN2C(=O)Nc2ccc(F)c(Cl)c2)cc1OC` (centres undefined) showed an MIC in assay [1] of 12.5 µM (≈ 6.57 µg/mL).

For `NNC(=O)c1ccncc1` [ISONIAZID], the minimal inhibitory concentration (MIC) in assay [1] was 12.5 µM (≈ 1.71 µg/mL).

`CO[C@H]1/C=C/O[C@@]2(C)Oc3c(C)c(O)c4c(O)c(c(/C=N/N5CCN(C)CC5)c(O)c4c3C2=O)NC(=O)/C(C)=C\C=C\[C@H](C)[C@H](O)[C@@H](C)[C@@H](O)[C@@H](C)[C@H](OC(C)=O)[C@@H]1C` [RIFAMPIN]: the MIC in assay [1] turned out to be 3.12 µM (≈ 2.57 µg/mL).

Values taken from ChEMBL document CHEMBL1806420, “Design, synthesis and antimycobacterial evaluation of novel 3-substituted-N-aryl-6,7-dimethoxy-3a,4-dihydro-3H-indeno[1,2-c]pyrazole-2-carboxamide analogues” (Bioorg Med Chem Lett, 2011).
